Source: ChEMBL document CHEMBL5046253, “Synthesis and bioevaluation of diaryl urea derivatives as potential antitumor agents for the treatment of human colorectal cancer” (Eur J Med Chem, 2022)
Activity calls are given as the source filed them. No cut-off for these calls is given here.

How the values were obtained:
[1] = test system: HCT-116; assay: Induction of apoptosis in human HCT-116 cells assessed as late apoptotic cells at 5 uM incubated for 24 hrs by annexin V FITC/propidium iodide staining based flow cytometry (reference value: 6.8 %); assay type: functional
[2] = Metabolic stability in Sprague-Dawley rat liver microsome; assay type: ADME; conditions: microsomes
[3] = test system: HCT-116; assay: Inhibition of cell migration in human HCT-116 cells at 6 uM measured after 24 hrs by wound healing assay (reference value: 31.16 %); assay type: functional
[4] = target: Cytochrome P450 3A4 (Homo sapiens, UniProt P08684); assay: Inhibition of CYP3A4 (unknown origin); assay type: ADME
Chain of Cytochrome P450 3A4 (P08684 whole entry): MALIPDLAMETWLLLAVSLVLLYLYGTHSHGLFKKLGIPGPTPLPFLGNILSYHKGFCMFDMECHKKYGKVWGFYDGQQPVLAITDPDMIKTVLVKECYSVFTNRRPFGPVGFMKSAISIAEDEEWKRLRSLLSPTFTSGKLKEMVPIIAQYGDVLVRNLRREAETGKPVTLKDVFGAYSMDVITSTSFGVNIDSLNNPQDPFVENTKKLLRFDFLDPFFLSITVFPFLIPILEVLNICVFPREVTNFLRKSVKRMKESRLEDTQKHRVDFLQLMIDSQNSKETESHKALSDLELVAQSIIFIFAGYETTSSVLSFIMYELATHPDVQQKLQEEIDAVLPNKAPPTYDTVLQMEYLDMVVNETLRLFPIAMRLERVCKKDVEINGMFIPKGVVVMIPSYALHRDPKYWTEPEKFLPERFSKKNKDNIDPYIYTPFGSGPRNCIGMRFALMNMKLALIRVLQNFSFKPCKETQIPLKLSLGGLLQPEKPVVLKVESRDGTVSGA

[5] = Tmax in Sprague-Dawley rat at 20 mg/kg, iv by LC-MS/MS analysis; assay type: ADME, organism-based; conditions: in vivo
[6] = test system: HCT-116; assay: Inhibition of AKT phosphorylation at S473 residue in human HCT-116 cells at 10 uM after 24 hrs by Western blot analysis; assay type: cell-based
[7] = target: Phosphatidylinositol 4,5-bisphosphate 3-kinase catalytic subunit gamma isoform (Homo sapiens, UniProt P48736); assay: Inhibition of PI3Kgamma (unknown origin) using PIP2 as substrate in presence of ATP incubated for 60 mins by ADP-glo based luminescence assay
Chain of Phosphatidylinositol 4,5-bisphosphate 3-kinase catalytic subunit gamma isoform (P48736 whole entry, canonical isoform): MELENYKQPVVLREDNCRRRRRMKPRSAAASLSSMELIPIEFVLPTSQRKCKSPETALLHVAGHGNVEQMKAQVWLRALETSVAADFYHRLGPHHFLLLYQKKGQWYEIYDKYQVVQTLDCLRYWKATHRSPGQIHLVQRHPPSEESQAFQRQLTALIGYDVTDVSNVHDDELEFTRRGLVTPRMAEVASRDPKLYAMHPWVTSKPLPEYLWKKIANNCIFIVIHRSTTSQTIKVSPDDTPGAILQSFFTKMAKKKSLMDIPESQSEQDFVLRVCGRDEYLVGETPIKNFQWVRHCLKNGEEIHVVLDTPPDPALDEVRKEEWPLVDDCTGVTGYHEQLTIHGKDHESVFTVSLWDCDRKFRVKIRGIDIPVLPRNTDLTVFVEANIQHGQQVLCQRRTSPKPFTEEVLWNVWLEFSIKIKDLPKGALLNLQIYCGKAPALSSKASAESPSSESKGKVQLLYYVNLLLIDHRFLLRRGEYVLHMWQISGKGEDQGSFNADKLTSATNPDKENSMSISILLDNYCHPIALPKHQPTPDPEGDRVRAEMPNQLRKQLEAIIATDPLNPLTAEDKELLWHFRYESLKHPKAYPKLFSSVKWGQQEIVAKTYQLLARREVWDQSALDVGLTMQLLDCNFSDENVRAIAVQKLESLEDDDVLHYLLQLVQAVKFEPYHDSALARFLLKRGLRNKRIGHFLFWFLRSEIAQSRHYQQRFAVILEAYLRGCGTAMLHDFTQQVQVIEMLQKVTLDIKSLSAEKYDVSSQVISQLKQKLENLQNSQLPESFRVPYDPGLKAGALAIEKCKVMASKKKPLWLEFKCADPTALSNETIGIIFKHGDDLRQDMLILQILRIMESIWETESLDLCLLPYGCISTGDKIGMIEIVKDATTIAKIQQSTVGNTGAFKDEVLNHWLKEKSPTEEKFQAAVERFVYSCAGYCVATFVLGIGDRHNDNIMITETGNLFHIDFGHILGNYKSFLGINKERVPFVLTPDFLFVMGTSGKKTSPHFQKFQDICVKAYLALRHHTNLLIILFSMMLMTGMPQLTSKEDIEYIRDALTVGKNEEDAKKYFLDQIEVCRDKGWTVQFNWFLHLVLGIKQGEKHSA

[8] = Volume of distribution at steady state in Sprague-Dawley rat at 20 mg/kg, iv by LC-MS/MS analysis; assay type: ADME, organism-based; conditions: in vivo
[9] = test system: L02; assay: Antiproliferative activity against human L02 cells assessed as reduction in cell viability incubated for 48 hrs by MTT assay; assay type: cell-based; conditions: L02, 48 h
[10] = test system: HCT-116; assay: Induction of apoptosis in human HCT-116 cells assessed as late apoptotic cells at 2.5 uM incubated for 24 hrs by annexin V FITC/propidium iodide staining based flow cytometry (reference value: 6.8 %); assay type: functional
[11] = MRT in Sprague-Dawley rat at 20 mg/kg, iv by LC-MS/MS analysis; assay type: ADME, organism-based; conditions: in vivo
[12] = test system: HCT-116; assay: Induction of apoptosis in human HCT-116 cells assessed as early apoptotic cells at 5 uM incubated for 24 hrs by annexin V FITC/propidium iodide staining based flow cytometry (reference value: 11.1 %); assay type: functional
[13] = target: Cytochrome P450 2D6 (Homo sapiens, UniProt P10635); assay: Inhibition of CYP2D6 (unknown origin); assay type: ADME
Chain of Cytochrome P450 2D6 (P10635 whole entry): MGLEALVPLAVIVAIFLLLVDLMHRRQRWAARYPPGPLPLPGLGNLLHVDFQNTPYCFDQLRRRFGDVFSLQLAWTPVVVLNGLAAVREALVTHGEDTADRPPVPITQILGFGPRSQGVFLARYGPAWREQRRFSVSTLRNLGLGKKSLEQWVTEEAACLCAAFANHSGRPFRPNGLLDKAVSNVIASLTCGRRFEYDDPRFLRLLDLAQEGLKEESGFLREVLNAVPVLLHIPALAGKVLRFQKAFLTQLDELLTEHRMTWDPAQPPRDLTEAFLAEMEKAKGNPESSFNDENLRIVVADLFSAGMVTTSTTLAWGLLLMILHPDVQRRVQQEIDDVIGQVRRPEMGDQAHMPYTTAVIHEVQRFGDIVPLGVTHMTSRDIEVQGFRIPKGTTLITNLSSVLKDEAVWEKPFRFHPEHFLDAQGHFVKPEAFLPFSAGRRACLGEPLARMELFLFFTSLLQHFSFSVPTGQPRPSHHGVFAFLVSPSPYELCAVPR

[14] = test system: HCT-116; assay: Induction of apoptosis in human HCT-116 cells assessed as necrotic cells at 5 uM incubated for 24 hrs by annexin V FITC/propidium iodide staining based flow cytometry (reference value: 0.9 %); assay type: functional
[15] = test system: HCT-116; assay: Antitumor activity against human HCT-116 cells xenografted in BALB/c nude mouse assessed as tumor growth inhibition at 20 mg/kg, iv administered for 19 days; assay type: functional; conditions: HCT-116, iv, 456 h, time 19 day, read-out: TGI
[16] = test system: Kidney; assay: Toxicity in BALB/c mouse assessed as effect on kidney by H and E staining based histological analysis; assay type: tissue-based; conditions: in vivo
[17] = target: Phosphatidylinositol 4,5-bisphosphate 3-kinase catalytic subunit alpha isoform (Homo sapiens, UniProt P42336); assay: Inhibition of PI3Kalpha (unknown origin) using PIP2 as substrate in presence of ATP incubated for 60 mins by ADP-glo based luminescence assay
Chain of Phosphatidylinositol 4,5-bisphosphate 3-kinase catalytic subunit alpha isoform (P42336 whole entry, canonical isoform): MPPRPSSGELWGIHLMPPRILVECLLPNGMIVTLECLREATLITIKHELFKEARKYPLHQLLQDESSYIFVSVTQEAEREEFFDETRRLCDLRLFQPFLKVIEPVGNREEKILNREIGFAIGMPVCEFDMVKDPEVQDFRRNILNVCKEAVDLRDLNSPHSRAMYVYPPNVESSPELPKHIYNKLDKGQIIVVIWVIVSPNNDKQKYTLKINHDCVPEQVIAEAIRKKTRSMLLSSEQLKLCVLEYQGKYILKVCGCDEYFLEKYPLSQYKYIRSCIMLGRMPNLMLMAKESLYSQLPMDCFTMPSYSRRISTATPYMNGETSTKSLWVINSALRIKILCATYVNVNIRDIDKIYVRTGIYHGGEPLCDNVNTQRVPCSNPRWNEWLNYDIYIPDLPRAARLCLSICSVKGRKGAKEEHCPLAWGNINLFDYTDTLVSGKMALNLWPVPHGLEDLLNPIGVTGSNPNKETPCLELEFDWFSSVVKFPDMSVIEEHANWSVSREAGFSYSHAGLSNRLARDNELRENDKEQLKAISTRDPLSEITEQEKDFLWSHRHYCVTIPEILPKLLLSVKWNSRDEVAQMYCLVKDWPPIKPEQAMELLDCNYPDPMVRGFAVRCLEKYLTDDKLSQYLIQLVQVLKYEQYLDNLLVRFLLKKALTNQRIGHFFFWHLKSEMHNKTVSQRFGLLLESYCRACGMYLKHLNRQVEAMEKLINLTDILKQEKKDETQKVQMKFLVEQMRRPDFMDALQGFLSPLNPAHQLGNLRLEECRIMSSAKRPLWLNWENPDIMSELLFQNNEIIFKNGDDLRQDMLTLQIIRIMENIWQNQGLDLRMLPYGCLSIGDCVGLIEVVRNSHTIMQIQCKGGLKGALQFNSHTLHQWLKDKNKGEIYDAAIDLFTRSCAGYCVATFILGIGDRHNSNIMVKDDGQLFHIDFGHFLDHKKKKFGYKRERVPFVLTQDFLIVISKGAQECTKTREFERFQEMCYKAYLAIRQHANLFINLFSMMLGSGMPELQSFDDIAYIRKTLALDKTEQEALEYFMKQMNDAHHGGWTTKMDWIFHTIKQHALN

[18] = Stability of the compound in simulated gastrointestinal fluid; assay type: ADME
[19] = test system: MDA-MB-231; assay: Antiproliferative activity against human MDA-MB-231 cells assessed as reduction in cell viability incubated for 48 hrs by MTT assay; assay type: functional, cell-based; conditions: MDA-MB-231, 48 h
[20] = test system: MCF7; assay: Antiproliferative activity against human MCF7 cells assessed as reduction in cell viability incubated for 48 hrs by MTT assay; assay type: functional, cell-based; conditions: MCF7, 48 h
[21] = test system: HepG2; assay: Antiproliferative activity against human HepG2 cells assessed as reduction in cell viability incubated for 48 hrs by MTT assay; assay type: functional, cell-based; conditions: HepG2, 48 h
[22] = target: Cytochrome P450 2C19 (Homo sapiens, UniProt P33261); assay: Inhibition of CYP2C19 (unknown origin); assay type: ADME
Chain of Cytochrome P450 2C19 (P33261 whole entry): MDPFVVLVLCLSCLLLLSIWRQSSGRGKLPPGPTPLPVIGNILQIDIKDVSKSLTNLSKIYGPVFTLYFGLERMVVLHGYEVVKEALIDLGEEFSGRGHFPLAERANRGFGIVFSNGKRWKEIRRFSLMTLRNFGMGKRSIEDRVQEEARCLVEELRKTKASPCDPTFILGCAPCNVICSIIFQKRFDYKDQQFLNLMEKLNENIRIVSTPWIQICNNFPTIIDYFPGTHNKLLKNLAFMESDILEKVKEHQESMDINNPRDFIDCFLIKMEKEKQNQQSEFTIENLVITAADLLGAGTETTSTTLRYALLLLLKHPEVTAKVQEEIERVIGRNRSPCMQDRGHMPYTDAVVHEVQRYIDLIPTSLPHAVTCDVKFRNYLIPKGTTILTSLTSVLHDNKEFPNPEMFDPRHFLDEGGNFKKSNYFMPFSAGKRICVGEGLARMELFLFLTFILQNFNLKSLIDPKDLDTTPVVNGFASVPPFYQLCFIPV

[23] = test system: HCT-116; assay: Induction of apoptosis in human HCT-116 cells assessed as viable cells at 10 uM incubated for 24 hrs by annexin V FITC/propidium iodide staining based flow cytometry (reference value: 81.2 %); assay type: functional; conditions: read-out: Activity
[24] = target: T1, Phosphatidylinositol 4,5-bisphosphate 3-kinase catalytic subunit delta isoform (Homo sapiens, UniProt O00329); assay: Inhibition of PI3Kdelta (unknown origin) using PIP2 as substrate in presence of ATP incubated for 60 mins by ADP-glo based luminescence assay
T1 sequence (O00329 whole entry): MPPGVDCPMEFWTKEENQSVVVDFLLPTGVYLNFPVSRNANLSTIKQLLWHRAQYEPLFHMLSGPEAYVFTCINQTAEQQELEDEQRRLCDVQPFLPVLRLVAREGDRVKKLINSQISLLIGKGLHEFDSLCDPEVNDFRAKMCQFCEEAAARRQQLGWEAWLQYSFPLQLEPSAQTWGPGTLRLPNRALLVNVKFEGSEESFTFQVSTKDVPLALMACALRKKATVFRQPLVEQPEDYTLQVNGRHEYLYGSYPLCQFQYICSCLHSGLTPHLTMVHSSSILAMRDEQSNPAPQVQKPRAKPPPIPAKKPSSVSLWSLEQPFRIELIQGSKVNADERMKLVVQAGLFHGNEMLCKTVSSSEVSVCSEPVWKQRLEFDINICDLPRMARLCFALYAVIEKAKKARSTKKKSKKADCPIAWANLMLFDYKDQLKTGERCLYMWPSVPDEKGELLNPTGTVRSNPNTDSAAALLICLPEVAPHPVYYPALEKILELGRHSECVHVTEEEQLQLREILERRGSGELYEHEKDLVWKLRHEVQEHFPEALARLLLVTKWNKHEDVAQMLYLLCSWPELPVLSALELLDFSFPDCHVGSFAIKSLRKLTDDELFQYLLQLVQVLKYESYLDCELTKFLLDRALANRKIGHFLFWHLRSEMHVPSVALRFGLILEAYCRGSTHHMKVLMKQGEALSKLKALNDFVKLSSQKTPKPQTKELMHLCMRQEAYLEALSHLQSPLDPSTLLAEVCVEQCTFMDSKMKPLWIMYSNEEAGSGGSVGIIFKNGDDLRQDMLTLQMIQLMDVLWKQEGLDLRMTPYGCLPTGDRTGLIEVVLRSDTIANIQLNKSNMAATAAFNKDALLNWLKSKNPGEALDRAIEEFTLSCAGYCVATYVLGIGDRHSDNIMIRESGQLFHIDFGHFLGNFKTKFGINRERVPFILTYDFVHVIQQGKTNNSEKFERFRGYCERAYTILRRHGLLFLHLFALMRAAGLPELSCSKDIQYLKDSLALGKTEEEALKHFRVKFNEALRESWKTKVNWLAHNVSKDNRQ

[25] = AUC (0 to infinity) in Sprague-Dawley rat at 20 mg/kg, iv by LC-MS/MS analysis; assay type: ADME, organism-based; parameters: route intravenous, time infinity, dose 20 mg/kg; conditions: in vivo
[26] = test system: Liver; assay: Toxicity in BALB/c mouse assessed as effect on liver by H and E staining based histological analysis; assay type: tissue-based; conditions: in vivo
[27] = test system: Heart; assay: Toxicity in BALB/c mouse assessed as effect on heart by H and E staining based histological analysis; assay type: tissue-based; conditions: in vivo
[28] = test system: A-431; assay: Antiproliferative activity against human A431 cells harboring wild type EGFR mutant assessed as reduction in cell viability incubated for 72 hrs by celltiter-glo assay; assay type: functional, cell-based; conditions: A-431, 72 h

## NC(=O)[C@@H]1CCCN1C(=O)c1ccc(NC(=O)Nc2ccc(-c3nc(N4CCOCC4)nc(N4CCOCC4)n3)cc2)cc1
[1]
  Activity: 9.71%
[2]
  Stability: Stable
[3]
  inhibition at 6 µM: 6.4%
[4]
  IC50: > 50000 nM
[5]
  Tmax: 1.8 min
[6]
  inhibition: Active
[7]
  IC50: 8.7 nM
[8]
  Vdss: 17.9 L/kg
[9]
  IC50: > 100000 nM
[10]
  Activity: 20.6%
[11]
  MRT: 624 min
[12]
  Activity: 13.3%
[13]
  IC50: > 50000 nM
[14]
  Activity: 1.79%
[15]
  inhibition in vivo at 20 mg/kg: 41.6%
[16]
  Activity: Non-Toxic
[17]
  IC50: 0.7 nM
[18]
  Stability: Stable
[19]
  IC50: 6480 nM
[20]
  IC50: 2220 nM
[21]
  IC50: 15100 nM
[22]
  IC50: > 50000 nM
[23]
  viability at 10 µM: 63.1%
[24]
  IC50: 27.4 nM
[25]
  AUC(0-inf): 30600 ng·h/mL
[26]
  Activity: Non-Toxic
[27]
  Activity: Non-Toxic
[28]
  IC50: 218 nM
